Several values for one entry are separate records, joined by “and”; a condition that tells them apart may be missing. Identical values can stand only once. Inconclusive results and toxic doses are left out. Rule for the calls: active = survival T/C of 150% or more; inactive = T/C below 125% in these data.
System: P388 leukemia ip, CD2F1 mice, survival T/C
Assay: NCI In Vivo Anticancer Drug Screen. Data for tumor model P388 Leukemia (intraperitoneal) in CD2F1 (CDF1) mice
Settings: endpoint: median survival time, higher = longer survival
Outline: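 Mice carrying the transplanted tumor received test compound or vehicle. Survival was recorded in each group, and the value is the treated-group measurement divided by that of the vehicle-treated control group.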

[1] = dose: 50.0 mg/kg/injection, schedule: Q01DX005 (ip), vehicle: Klucel (hydroxypropylcellulose) (HPC)
[2] = dose: 100.0 mg/kg/injection, schedule: Q01DX005 (ip), vehicle: Klucel (hydroxypropylcellulose) (HPC)
[3] = dose: 200.0 mg/kg/injection, schedule: Q01DX005 (ip), vehicle: Klucel (hydroxypropylcellulose) (HPC)
[4] = dose: 50.0 mg/kg/injection, schedule: Q01DX009 (ip), vehicle: Klucel (hydroxypropylcellulose) (HPC)
[5] = dose: 100.0 mg/kg/injection, schedule: Q01DX009 (ip), vehicle: Klucel (hydroxypropylcellulose) (HPC)
[6] = dose: 50.0 mg/kg/injection, schedule: Q01DX009 (ip), vehicle: saline
[7] = dose: 100.0 mg/kg/injection, schedule: Q01DX009 (ip), vehicle: saline
[8] = dose: 50.0 mg/kg/injection, schedule: Q01DX005 (ip), vehicle: saline with Tween-80
[9] = dose: 100.0 mg/kg/injection, schedule: Q01DX005 (ip), vehicle: saline with Tween-80
[10] = dose: 200.0 mg/kg/injection, schedule: Q01DX005 (ip), vehicle: saline with Tween-80
[11] = dose: 60.0 mg/kg/injection, schedule: Q01DX005 (ip), vehicle: saline with Tween-80
[12] = dose: 120.0 mg/kg/injection, schedule: Q01DX005 (ip), vehicle: saline with Tween-80
[13] = dose: 240.0 mg/kg/injection, schedule: Q01DX005 (ip), vehicle: saline with Tween-80
[14] = dose: 100.0 mg/kg/injection, schedule: Q01DX001 (ip), vehicle: saline with Tween-80
[15] = dose: 25.0 mg/kg/injection, schedule: Q01DX005 (ip), vehicle: saline with Tween-80
[16] = dose: 200.0 mg/kg/injection, schedule: Q01DX001 (ip), vehicle: saline with Tween-80
[17] = dose: 200.0 mg/kg/injection, schedule: Q01DX009 (ip), vehicle: Klucel (hydroxypropylcellulose) (HPC)

Measured: T/C

CCC(CO)[N-]CC[N-]C(CC)CO.CCC(CO)[N-]CC[N-]C(CC)CO.O.O.[Pd+2].[Pd+2] (centres undefined)
inactive: [1] 91 % of control | [2] 97 % of control | [3] 98 % of control

O=C1c2ccccc2CCCC12OC2c1cccnc1 (centres undefined)
inactive: dose: 25.0 mg/kg/injection, schedule: Q01DX009 (ip), vehicle: Klucel (hydroxypropylcellulose) (HPC) 100 % of control | [4] 100 % of control | [5] 104 % of control

Cc1cccc(=O)n1C
inactive: [6] 102 % of control | [7] 102 % of control | dose: 200.0 mg/kg/injection, schedule: Q01DX009 (ip), vehicle: saline 100 % of control

CCCCOC(=O)c1ccc(NC(=O)Nc2ccccc2OC)cc1
inactive: dose: 25.0 mg/kg/injection, schedule: Q04DX003 (ip), vehicle: saline with Tween-80 91 % of control | dose: 50.0 mg/kg/injection, schedule: Q04DX003 (ip), vehicle: saline with Tween-80 87 % of control

CN(C)CCNc1ccc(O)c2sc3ccccc3c(=O)c12
inactive: dose: 100.0 mg/kg/injection, schedule: Q04DX003 (ip), vehicle: saline with Tween-80 94 % of control | dose: 200.0 mg/kg/injection, schedule: Q04DX003 (ip), vehicle: saline with Tween-80 90 % of control

CCCc1c(OC)c(OC)c2c(c1C(C)=O)OCO2
inactive: [8] 100 % of control | [9] 100 % of control | [10] 104 % of control

Cn1c(=O)nc2n(-c3ccc(Cl)c(Cl)c3)c3ccccc3nc-2c1=O
inactive: dose: 100.0 mg/kg/injection, schedule: Q01DX001 (ip), vehicle: Klucel (hydroxypropylcellulose) (HPC) 107 % of control | dose: 200.0 mg/kg/injection, schedule: Q01DX001 (ip), vehicle: Klucel (hydroxypropylcellulose) (HPC) 98 % of control | dose: 400.0 mg/kg/injection, schedule: Q01DX001 (ip), vehicle: Klucel (hydroxypropylcellulose) (HPC) 94 % of control

CC(/C=N\NC(=S)SCc1ccccc1)=N/N=C(N)N
inactive: dose: 6.25 mg/kg/injection, schedule: Q01DX009 (ip), vehicle: saline with Tween-80 101 % of control | dose: 12.5 mg/kg/injection, schedule: Q01DX009 (ip), vehicle: saline with Tween-80 95 % of control | dose: 25.0 mg/kg/injection, schedule: Q01DX009 (ip), vehicle: saline with Tween-80 101 % of control | [6] 91 % of control | [7] 92 % of control

COC1=C(C(C2=C(OC)CC(C)(C)CC2=O)c2ccc3c(c2)OCO3)C(=O)CC(C)(C)C1
inactive: [11] 102 % of control | [12] 111 % of control | [13] 101 % of control

CC(N)C(=O)Nc1ccc(C(=O)O)c(O)c1 (centres undefined)
inactive: [11] 100 % of control | [12] 102 % of control | [13] 93 % of control

NC(N)=N/N=C1\C/C(=N\N=C(N)N)c2cc3ccccc3cc21
inactive: dose: 12.5 mg/kg/injection, schedule: Q01DX001 (ip), vehicle: saline with Tween-80 105 % of control | dose: 25.0 mg/kg/injection, schedule: Q01DX001 (ip), vehicle: saline with Tween-80 102 % of control | dose: 25.0 mg/kg/injection, schedule: Q01DX001 (ip), vehicle: saline 103 % of control | dose: 50.0 mg/kg/injection, schedule: Q01DX001 (ip), vehicle: saline with Tween-80 91 % of control | dose: 50.0 mg/kg/injection, schedule: Q01DX001 (ip), vehicle: saline 98 % of control | [14] 93 % of control | dose: 100.0 mg/kg/injection, schedule: Q01DX001 (ip), vehicle: saline 99 % of control

COc1ccc(S(=O)c2coc3ccccc3c2=O)cc1 (centres undefined)
inactive: [11] 99 % of control | [12] 100 % of control | [13] 100 % of control

Oc1cc2ccccc2c(-c2c(O)c(O)cc3ccccc23)c1O
inactive: [15] 111 % of control | [8] 113 % of control | [14] 113 % of control and 115 % of control | [9] 112 % of control | [16] 113 % of control and 121 % of control | dose: 600.0 mg/kg/injection, schedule: Q01DX001 (ip), vehicle: saline with Tween-80 124 % of control

CC(C(O)CO)n1cnc2c(NCC(O)CO)ncnc21 (centres undefined)
inactive: [14] 101 % of control | [16] 107 % of control | dose: 400.0 mg/kg/injection, schedule: Q01DX001 (ip), vehicle: saline with Tween-80 100 % of control

C=COC(=O)C(Cc1ccccc1)NC(=O)OCc1ccccc1 (centres undefined)
inactive: dose: 12.5 mg/kg/injection, schedule: Q01DX005 (ip), vehicle: saline with Tween-80 106 % of control | [15] 100 % of control | [8] 103 % of control | [9] 103 % of control | [10] 100 % of control

CC1OC(OCC2OC(OCCc3ccc(O)c(O)c3)C(O)C(OC3OC(C)C(O)C(O)C3O)C2O)C(O)C(O)C1O (centres undefined) (tested in a mixture with another compound)
inactive: dose: 9.5 mg/kg/injection, schedule: Q01DX009 (ip), vehicle: saline 105 % of control | dose: 19.0 mg/kg/injection, schedule: Q01DX009 (ip), vehicle: saline 103 % of control | dose: 38.0 mg/kg/injection, schedule: Q01DX009 (ip), vehicle: saline 112 % of control | dose: 76.0 mg/kg/injection, schedule: Q01DX009 (ip), vehicle: saline 103 % of control

O=C1c2cccnc2C(=O)C2CC3=C(CCCC3)CC12 (centres undefined)
inactive: [8] 100 % of control | [9] 100 % of control | [10] 100 % of control

O=C(SC(O)c1ccc(Cl)cc1)c1ccccc1 (centres undefined)
inactive: [4] 99 % of control | [5] 106 % of control | [17] 105 % of control

CN(C)C(c1cccnc1)C1COCOC1 (centres undefined)
inactive: dose: 50.0 mg/kg/injection, schedule: Q01DX005 (ip), vehicle: saline 109 % of control | dose: 100.0 mg/kg/injection, schedule: Q01DX005 (ip), vehicle: saline 106 % of control | dose: 200.0 mg/kg/injection, schedule: Q01DX005 (ip), vehicle: saline 98 % of control

O=C1CC(SC(=S)N2CCOCC2)C(=O)N1 (centres undefined)
inactive: dose: 100.0 mg/kg/injection, schedule: Q04DX002 (ip), vehicle: saline 99 % of control and 103 % of control | dose: 200.0 mg/kg/injection, schedule: Q04DX002 (ip), vehicle: saline 99 % of control and 97 % of control | dose: 400.0 mg/kg/injection, schedule: Q04DX002 (ip), vehicle: saline 100 % of control and 109 % of control

CCOC(=O)c1c[nH]c2ccc3[nH]cnc3c2c1=O
inactive: [1] 95 % of control | [2] 99 % of control | [3] 95 % of control

CC(=O)Oc1cc(C)cc2ccc(-c3ccc4cc(C)cc(OC(C)=O)c4c3OC(C)=O)c(OC(C)=O)c12
inactive: [4] 96 % of control | [5] 96 % of control | [17] 96 % of control

CCCCCn1c(C)cc(/C=C\c2ccc3cc(C)ccc3[n+]2C)c1C
inactive: dose: 0.5 mg/kg/injection, schedule: Q04DX003 (ip), vehicle: saline 118 % of control | dose: 1.0 mg/kg/injection, schedule: Q04DX003 (ip), vehicle: saline 109 % of control | dose: 2.0 mg/kg/injection, schedule: Q04DX003 (ip), vehicle: saline 109 % of control
